Results on 7 compounds are retold here after publication PMC6940941, “Development of Thiazolidinedione-Based HDAC6 Inhibitors to Overcome Methamphetamine Addiction” (International Journal of Molecular Sciences, 2019).

What is called IC50 is the concentration at which inhibition is half-maximal. Lower therefore signals higher potency.

For one data set, the system named is Ac-α-tubulin. Kind of data set: Western blot of Ac-α-tubulin / α-tubulin in SH-SY5Y cells. The class given is cell-based, human. Here is the method: (§1) We further explored the precise cellular mechanism of compound 6b. Histone H3 and α-tubulin are well-known substrates of HDAC1 and HDAC6 [23, 24]. Therefore, inhibition of HDAC1 and HDAC6 enzymes promotes the accumulation of acetylated Histone H3 and α-tubulin, respectively. Therefore, SH-SY5Y cells were incubated with compound 6b at various concentrations (0, 1, 5, 10, and 20 µM) for 24 h and the expression levels of α-tubulin, Ac-α-tubulin, Histone H3, and Ac-Histone H3 were analysed by Western blot. […] The administration of 6b at relatively low concentration of 1 µM caused the acetylation of α-tubulin via inhibition of HDAC6.
We next explored the underlying molecular and biochemical mechanisms behind the morphological changes. α-Tubulin is the basic protein that constitutes the cytoskeleton and the dynamic acetylation and deacetylation of α-tubulin play an important role in the morphology of cells. […]. […] We next investigated if compound 6b reversed the loss of the acetylation caused by methamphetamine. […].
(§2) The cells were washed and lysed in ice-cold lysis buffer (23 mM Tris-HCl pH 7.6, 130 mM NaCl, 1% NP-40, 1% sodium deoxycholate, 0.1% SDS) and 30 µg of lysate per lane was separated by SDS-PAGE, followed by transferring to a PVDF membrane (Bio rad, Hercules, USA). The membrane was blocked with 5% skim milk in TBST, and then incubated with primary antibody. After being treated with goat-anti rabbit secondary antibody (Santa Cruz, CA, USA) coupled horseradish peroxidase, proteins were visualized by ECL chemiluminescence according to the instructions of the manufacturer’s instruction (GE Healthcare, Chicago, IL, USA).
(§3) Figure 2 Effect of compound 6b on the cell viability of SH-SY5Y and the acetylation status of α-tubulin and Histone H3. (A) SH-SY5Y cells were treated with the indicated concentrations of compound 6b for 24 h and the cell viability was measured using the colorimetric MTS assay. Data are presented as mean ± SD (n = 4). (B) SH-SY5Y cells were incubated with the indicated concentrations of compound 6b or Tubastatin A (Tub) for 24 h and the expression levels of α-tubulin, Ac-α-tubulin, Histone H3, and Ac-Histone H3 were analysed by Western blot. Tubastatin A was employed as a positive control and β-actin was used as a loading control. The p value was obtained by Student t-test. * p < 0.01 as compared to vehicle.
. (A) SH-SY5Y cells were incubated with the indicated concentrations of methamphetamine (METH) for 24 h and the expression levels of Ac-α-tubulin and α-tubulin were analysed by Western blot. β-actin was used as a loading control. […]
For orientation: In western blotting, separated proteins are transferred to a membrane and probed.

Data set [1] has as its target T1, HDAC6 (Homo sapiens, UniProt Q9UBN7).
T1 sequence (Q9UBN7 1-1215): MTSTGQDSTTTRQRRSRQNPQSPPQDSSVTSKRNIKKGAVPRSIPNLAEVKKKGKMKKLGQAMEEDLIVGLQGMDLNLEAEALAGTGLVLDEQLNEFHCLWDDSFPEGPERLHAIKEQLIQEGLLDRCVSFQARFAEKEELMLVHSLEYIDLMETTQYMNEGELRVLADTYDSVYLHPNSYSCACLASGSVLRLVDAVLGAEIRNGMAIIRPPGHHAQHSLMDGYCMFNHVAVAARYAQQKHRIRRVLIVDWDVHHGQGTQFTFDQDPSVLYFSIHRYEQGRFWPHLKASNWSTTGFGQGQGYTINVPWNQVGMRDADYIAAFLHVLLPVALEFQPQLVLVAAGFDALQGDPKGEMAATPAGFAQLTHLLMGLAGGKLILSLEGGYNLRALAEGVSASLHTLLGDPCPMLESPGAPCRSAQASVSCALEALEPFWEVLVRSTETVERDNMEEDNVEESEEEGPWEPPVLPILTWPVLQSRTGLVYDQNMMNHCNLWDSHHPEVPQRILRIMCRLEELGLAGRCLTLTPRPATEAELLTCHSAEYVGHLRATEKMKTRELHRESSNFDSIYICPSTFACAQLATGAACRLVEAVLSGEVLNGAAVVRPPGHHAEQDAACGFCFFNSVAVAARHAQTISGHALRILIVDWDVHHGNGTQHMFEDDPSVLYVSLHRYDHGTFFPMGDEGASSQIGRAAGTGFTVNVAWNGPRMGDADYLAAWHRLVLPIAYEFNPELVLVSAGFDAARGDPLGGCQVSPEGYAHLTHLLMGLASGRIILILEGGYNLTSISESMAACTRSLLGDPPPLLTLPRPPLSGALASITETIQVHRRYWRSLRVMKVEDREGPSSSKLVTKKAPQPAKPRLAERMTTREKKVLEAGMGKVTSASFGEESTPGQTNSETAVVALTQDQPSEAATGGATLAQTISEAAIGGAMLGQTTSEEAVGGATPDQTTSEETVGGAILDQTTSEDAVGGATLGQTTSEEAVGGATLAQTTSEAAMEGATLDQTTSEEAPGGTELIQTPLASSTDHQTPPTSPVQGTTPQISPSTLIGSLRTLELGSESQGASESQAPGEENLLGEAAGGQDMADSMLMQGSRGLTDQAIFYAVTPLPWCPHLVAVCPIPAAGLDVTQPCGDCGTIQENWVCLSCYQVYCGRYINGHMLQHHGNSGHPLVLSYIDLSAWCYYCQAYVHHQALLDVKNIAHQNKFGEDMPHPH
Description: (§4) Tubastain A (Portland, OR, USA) was purchased from TCI chemicals.
(§5) Enzymatic HDAC assay was performed following manufacturer’s protocol (BPS Bioscience). Briefly, HDAC assay buffer (35 µL) was mixed with 5 µL of BSA (1 mg/mL) and 5 µL of HDAC substrate (200 µM) in 96-well black plate. […] After incubation, 50 µL of undiluted 2 × HDAC developer was added to each well. After the mixture was incubated at RT for 15 min, fluorescence intensity was measured using a microplate reader at 360 nm excitation and 460 nm emission wavelengths.

Data set [2] has as its target T1, HDAC6. Kind of data set: Enzymatic HDAC fluorogenic assay (BPS Bioscience), HDAC6.
Description: as §4, §5
Data set [3] relates to SH-SY5Y cells. The data set is described as follows: Assessment of cell morphology (phase contrast microscopy). The class given is cell-based, human. Here is the method: SH-SY5Y cells (1 × 10^4 cells/well) were seeded in 6-well plate, and the cells were allowed to attach for 72 h. Culture medium was then changed to fresh medium containing METH (1 mM) for pretreat 4 h. After being preincubated for 4 h, add to compound 6b (5, 10, and 20 µM) for 24 h.
Figure 3 Effect of methamphetamine (METH) and compound 6b on the cell morphology and viability of SH-SY5Y cells. (A) Effect of methamphetamine on the cell viability of SH-SY5Y. Cells were incubated with the indicated concentrations of methamphetamine (METH) for 24 h and cell viability was measured using the colorimetric MTS assay. Data are presented as mean ± SD (n = 4). (B) Bright-field images of SH-SY5Y cells. […]

For the next data set, the system named is Ac-Histone H3. The data set is described as follows: Western blot of Ac-Histone H3 / Histone H3 in SH-SY5Y cells. Conditions: 24 h. The class given is cell-based, human. Here is the method: as §1, §2, §3
The target in another data set is T2, HDAC1 (Homo sapiens, UniProt Q13547).
T2 construct: purchased BPS Bioscience #50061
The data set is described as follows: Enzymatic HDAC fluorogenic assay (BPS Bioscience), HDAC1. The class given is biochemical. Conditions: 37 °C, 30 min incubation.

Data set [4] concerns SH-SY5Y cells. The data set is described as follows: Cell viability, colorimetric MTS assay. The class given is cell-based, human. As to conditions: 24 h, up to 1 mM. How it is done: SH-SY5Y (1 × 10^3 cells/well) were seeded in 96-well plate, the medium volume was brought to 100 µL, and the cells were allowed to attach for 14 h. Various concentrations of compound 6b (1, 5, 10, 30, 50, 70, and 100 µM) and METH (0.1 and 1 mM) were then added to the wells. Cells were then incubated at 37 °C for 24 h. Cell viability was determined using the Promega Cell Titer 96 Aqueous One Solution cell proliferation assay. Absorbance at 490 nm was read on Tecan Infinite F200 Pro plate reader, and values were expressed as percent of absorbance from cells incubated in DMSO alone.
Figure 2 Effect of compound 6b on the cell viability of SH-SY5Y and the acetylation status of α-tubulin and Histone H3. (A) SH-SY5Y cells were treated with the indicated concentrations of compound 6b for 24 h and the cell viability was measured using the colorimetric MTS assay. Data are presented as mean ± SD (n = 4). (B) SH-SY5Y cells were incubated with the indicated concentrations of compound 6b or Tubastatin A (Tub) for 24 h and the expression levels of α-tubulin, Ac-α-tubulin, Histone H3, and Ac-Histone H3 were analysed by Western blot. […]
Figure 3 Effect of methamphetamine (METH) and compound 6b on the cell morphology and viability of SH-SY5Y cells. […] Cells were incubated with the indicated concentrations of methamphetamine (METH) for 24 h and cell viability was measured using the colorimetric MTS assay. […]
On the technique in general: Tetrazolium assays rely on reduction of a dye to a coloured formazan, in cell work by metabolically active cells.

Details of data set [5]: method as in PMID 30597327. As to conditions: hampered in vivo application; cited from earlier work.
Where [6] appears, read: SH-SY5Y, 0, 0.5, 1, 2, and 3 mM, 24 h.

T2 sequence (Q13547 whole entry): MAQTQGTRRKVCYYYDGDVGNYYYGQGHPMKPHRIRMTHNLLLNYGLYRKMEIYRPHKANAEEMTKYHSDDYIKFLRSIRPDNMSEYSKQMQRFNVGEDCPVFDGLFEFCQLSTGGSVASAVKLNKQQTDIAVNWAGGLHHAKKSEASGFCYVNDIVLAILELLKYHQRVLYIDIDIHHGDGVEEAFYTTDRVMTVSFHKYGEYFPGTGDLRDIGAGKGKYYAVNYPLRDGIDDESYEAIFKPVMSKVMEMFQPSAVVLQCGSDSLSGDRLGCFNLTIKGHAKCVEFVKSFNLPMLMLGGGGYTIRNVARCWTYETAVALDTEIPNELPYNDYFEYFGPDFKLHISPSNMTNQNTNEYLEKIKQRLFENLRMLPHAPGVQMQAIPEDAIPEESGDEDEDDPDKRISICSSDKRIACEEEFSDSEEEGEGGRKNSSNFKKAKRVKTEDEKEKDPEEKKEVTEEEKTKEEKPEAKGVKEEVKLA
Description for HDAC1: as §4, §5

`O=C(NO)c1ccc(CN2C(=O)CSC2=O)cc1` [Compound 6b, 4-((2,4-Dioxothiazolidin-3-yl)methyl)-N-hydroxybenzamide]: the “acetylation of α-tubulin after METH-promoted loss of acetylation” value in the data set with Ac-α-tubulin (SH-SY5Y pretreated with METH 3 mM for 4 h, then 6b (1 µM) for 24 h) is “significant increase”. For the same compound, the “acetylation of α-tubulin” value in the data set with Ac-α-tubulin (SH-SY5Y, 0, 1, 5, 10, and 20 µM, 24 h) was “dose-dependently induced”. Besides, the “concentration that caused the acetylation of α-tubulin” value with Ac-α-tubulin (SH-SY5Y, 24 h) amounted to 1 µM. Moreover, the “Selectivity Index” value at HDAC6 [1] came out at 18.5. Moreover, the IC50 against HDAC6 [2] worked out at 21 nM; on HDAC1, 388 nM. In addition, the “effect on METH-induced cell morphology change” value with SH-SY5Y cells [3] (SH-SY5Y pretreated with 1 mM METH for 4 h, then 5, 10, and 20 µM for 24 h, dose-dependent) is “reversed effect on the cell morphology change from a rounded shape back to a spindle shape”. In addition, the “acetylation of Histone H3” value with Ac-Histone H3 (SH-SY5Y, 0, 1, 5, 10, and 20 µM) was “dose-dependently induced”. Further, the “protein level of Histone H3” value in the data set with Ac-Histone H3 (SH-SY5Y, 0-20 µM) is “increases in proportion to the concentration”. Besides, the “concentration able to promote the acetylation of Histone H3” value in the data set on Ac-Histone H3 (SH-SY5Y) is listed as 10 µM.

With `CN[C@@H](C)Cc1ccccc1` [methamphetamine, Methamphetamine], in the data set on Ac-α-tubulin (setting [6]), the “acetylation of α-tubulin” value is on record as “dose-dependently decreased” and the “expression level of α-tubulin” value is listed as “remained unchanged”. Further, in the data set on SH-SY5Y cells [4], the “effect on cell viability” value is given as “no toxicity”. In addition, the cell morphology entry in the data set on SH-SY5Y cells [3] (SH-SY5Y, 1 mM) is “rounded shape with a shrunken morphology”.

For `O=C(NO)c1ccc(CN2C(=O)SC(Cc3ccccc3)C2=O)cc1` (centres unmarked) [Compound 8c, 4-((5-Benzyl-2,4-dioxothiazolidin-3-yl)methyl)-N-hydroxybenzamide], the IC50 was 628 nM against HDAC6 [2] and over 100000 nM at HDAC1.

In the case of `C=CCC1SC(=O)N(Cc2ccc(C(=O)NO)cc2)C1=O` (centres unmarked) [Compound 8b, 4-((5-Allyl-2,4-dioxothiazolidin-3-yl)methyl)-N-hydroxybenzamide], the values for the IC50 against HDAC6 [2] and at HDAC1 were 1300 nM and over 100000 nM, respectively.

For the compound `O=C(NO)c1ccc2c(c1)C(=O)c1ccccc1C2=O` [anthraquinone-based HDAC6 inhibitor], the solubility result in data set [5] is listed as “poor solubility”.

`O=C(NO)c1cccc(CN2C(=O)CSC2=O)c1` [Compound 6a, 3-((2,4-Dioxothiazolidin-3-yl)methyl)-N-hydroxybenzamide]: the IC50 against HDAC6 [2] was 1960 nM; on HDAC1, over 50000 nM.

With `CCCC1SC(=O)N(Cc2ccc(C(=O)NO)cc2)C1=O` (centres unmarked) [Compound 8a, 4-((2,4-Dioxo-5-propylthiazolidin-3-yl)methyl)-N-hydroxybenzamide], the IC50 at HDAC6 [2] is 79300 nM; against HDAC1 it was over 100000 nM.
